According to US8247437B2, “N-hydroxyamide derivatives and use thereof” (Merck Serono SA, priority 2004, dated 2012):
Like-named read-outs stand apart in the source and are kept apart here.

What was measured:
metalloelastase (MMP-12) = metalloelastase (MMP-12) (Homo sapiens, UniProt P39900); experiment: MMP-12 enzyme inhibition assay (coumarin-labelled peptide substrate McaPLGLDpaAR); format: biochemical; details: read-out: MMP-12 IC50
Procedure: (§1) Stock solutions were made up as follows: Assay Butter: 100 mM Tris-HCl pH 7.6 is containing 100 mM NaCl, 10 mM CaCl2, and 0.05% Brij 35.
(§2) Substrate: 0.4 mM McaPLGLDpaAR (from Bachem) (0.437 mg/ml) stock solution in 100% DMSO (stored at −20° C.). Dilute to 8 μM in assay butter.
(§3) Enzyme: Recombinant human 92 kDa gelatinase (MMP-9; APMA (4-aminophenyl mercuric acetate)-activated if necessary) appropriately diluted in assay butter.
(§4) Test Compounds were prepared initially as 10 mM compound solution in 100% DMSO, diluted to 1 mM in 100% DMSO, then serially diluted 3-fold in 100% DMSO across columns 1-10 of a 96-well microtitre plate Assay concentration range, 100 μM (column 1) to 5.1 nM (column 10).
(§5) The assay was performed in a total volume of 100 μL per well in 96-well microfilm plates. Activated enzyme (20 μL) was added to the wells followed by 20 μL of assay butter. Appropriate concentrations of test compounds dissolved in 10 μL of DMSO were then added followed by 50 μL of McaPLGLDpaAR (8 μM, prepared by dilution of DMSO stock in assay butter). For each as say ten concentrations of test compound were examined in duplicate. Control wells lack either enzyme or test compound. The reactions were incubated at 37° C. for 2 hours. The fluorescence at 405 nm was measured immediately with an SLT Fluostar fluorometer (SL T Labinstruments GmbH, Grödig, Austria) using 320 nm excitation, without stopping the reaction.
(§6) The effect of the test compound was determined from the dose response curve generated by the 10 duplicate concentrations of inhibitor. The IC50 (the concentration of compound required to give a 50% decrease in enzyme activity) was obtained by fitting data to the equation, Y=a+((b−a)/(1+(c/X)^d)). (Y=inhibition achieved for a particular dose; X=the dose in nM; a=minimum y or zero % inhibition; b=maximum y or 100% inhibition; c=is the IC50; d=is the slope). The result was rounded to one significant figure.
Compounds of the invention were tested for inhibitory activity against metalloelastase (MMP-12) in an assay using a coumarin-labelled peptide substrate, (7-methoxycoumarin-4-yl)acetyl-Pro-Leu-Gly-Leu-(3-[2,4-dinitrophenyl]-L-2,3-diaminopropionyl)-Ala-Arg-NH2 (McaPLGLDpaAR) (Knight et al, 1992, above). The protocol for this assay was as described for the MMP-9 assay above.

[1] = target: 92 kDa gelatinase (MMP-9) (Homo sapiens, UniProt P14780); experiment: MMP-9 enzyme inhibition assay (coumarin-labeled peptide substrate McaPLGLDpaAR); format: biochemical; details: read-out: MMP-9 IC50
Procedure: Compounds of the invention were tested for inhibitory activity against 92 kDa gelatinase (MMP-9) in an assay using a coumarin-labeled peptide substrate, (7-methoxycoumarin-4-yl)acetyl-Pro-Leu-Gly-Leu-(3-[2,4-dinitrophenyl]-L-2,3diaminopropionyl)-Ala-Arg-NH2 (McaPLGLDpaAR) (Knight et al, FEBS Lett. 1992; 263-266).
as §1, §2, §3, §4, §5, §6

collagenase (MMP-1) = target: T1, collagenase (MMP-1) (Homo sapiens, UniProt P03956); experiment: MMP-1 enzyme inhibition assay (coumarin-labelled peptide substrate McaPLGLDpaAR); format: biochemical; details: read-out: MMP-1 IC50
T1 sequence (P03956 100-469): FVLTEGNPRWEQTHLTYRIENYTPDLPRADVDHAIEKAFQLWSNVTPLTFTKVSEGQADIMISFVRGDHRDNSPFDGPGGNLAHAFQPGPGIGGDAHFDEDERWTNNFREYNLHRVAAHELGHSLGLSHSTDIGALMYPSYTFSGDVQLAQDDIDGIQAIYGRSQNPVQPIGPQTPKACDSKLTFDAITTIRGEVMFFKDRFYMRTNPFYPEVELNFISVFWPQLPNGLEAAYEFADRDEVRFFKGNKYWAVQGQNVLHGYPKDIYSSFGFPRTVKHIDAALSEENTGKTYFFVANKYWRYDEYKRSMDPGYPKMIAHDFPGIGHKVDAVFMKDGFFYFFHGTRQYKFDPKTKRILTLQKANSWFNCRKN
Procedure: as §1, §2, §3, §4, §5, §6
(§7) Compounds of the invention were tested for inhibitory activity against collagenase (MMP-1) in an assay using a coumarin-labelled peptide substrate, (7-methoxycoumarin-4-yl)acetyl-Pro-Leu-Gly-Leu-(3-[2,4-dinitrophenyl]-L-2,3diaminopropionyl)-Ala-Arg-NH2 (Mca PLGLDpaAR) (Knight et al, 1992, above). The protocol for this assay was as described for the MMP-9 assay above.

gelatinase A (MMP-2) = target: T2, gelatinase A (MMP-2) (Homo sapiens, UniProt P08253); experiment: MMP-2 enzyme inhibition assay (coumarin-labelled peptide substrate McaPLGLDpaAR); format: biochemical; details: read-out: MMP-2 IC50
T2 sequence (P08253 110-660): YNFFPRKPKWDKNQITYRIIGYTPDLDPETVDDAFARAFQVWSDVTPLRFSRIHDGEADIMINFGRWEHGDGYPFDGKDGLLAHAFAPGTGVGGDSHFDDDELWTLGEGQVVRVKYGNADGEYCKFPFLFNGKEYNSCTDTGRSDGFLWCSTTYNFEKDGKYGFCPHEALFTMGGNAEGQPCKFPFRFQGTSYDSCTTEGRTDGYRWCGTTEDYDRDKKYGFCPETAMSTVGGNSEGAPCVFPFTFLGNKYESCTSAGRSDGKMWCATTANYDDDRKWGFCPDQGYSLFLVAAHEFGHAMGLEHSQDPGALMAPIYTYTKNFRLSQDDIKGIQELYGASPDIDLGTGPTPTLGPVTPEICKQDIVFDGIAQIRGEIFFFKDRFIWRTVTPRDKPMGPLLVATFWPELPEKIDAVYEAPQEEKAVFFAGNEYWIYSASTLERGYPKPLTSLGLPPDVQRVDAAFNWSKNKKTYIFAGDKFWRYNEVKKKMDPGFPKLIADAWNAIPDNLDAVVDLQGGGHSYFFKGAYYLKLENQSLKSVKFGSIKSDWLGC
Procedure: as §1, §2, §3, §4, §5, §6
as §7, with “gelatinase A (MMP-2)” for “collagenase (MMP-1)”

[2] = system: IL-2-induced peritoneal recruitment of lymphocytes; experiment: IL-2-induced peritoneal recruitment of lymphocytes; format: in vivo, C3H/HEN mice; details: mice, dose 1 mg/kg po, 15 min prior to IL-2; cells collected 24 h after IL-2; Table 3, Formula (I)
Procedure: Administration of IL-2 intraperitoneally causes migration of lymphocytes into the intraperitoneal cavity. This is a model for the cellular migration that occurs during inflammation.
C3H/HEN mice (Elevage Janvier, France) were intraperitoneally injected with IL-2 (Serono Pharmaceutical Research Institute, 20 μg/kg, in saline).
Compounds of the invention were suspended in 0.5% carboxymethylcellulose (CMC)/0.25% tween-20 and were administered by s.c. or p.o. route (10 ml/kg) 15 min prior to administration of IL-2.
Twenty-four hours after administration of IL-2, peritoneal white blood cells were collected by 3 successive lavages of the peritoneal cavity with 5 ml phosphate buffered saline (PBS)-1 mM EDTA (+4° C.). The suspension was centrifuged (1700 g×10 min at +4° C.). The resulting pellet was suspended in 1 ml PBS-1 mM EDTA.
Lymphocytes were identified and counted using a Beckman/Coulter counter.
The animals were divided into 6 groups (6 mice each group):
Group 1: (baseline) received 0.5% CMC/0.25% tween-20 (vehicle of compound of the invention) and saline (vehicle of IL-2);
Group 2: (control IL-2) received 0.5% CMC/0.25% tween-20 and injection of IL-2;
Group 3: Experimental group (Compound of the invention Dose 1) received a compound of the invention and injection of IL-2;
Group 4: Experimental group (Compound of the invention Dose 2) received a compound of the invention and injection of IL-2;
Group 5: Experimental group (Compound of the invention Dose 3) received a compound of the invention and injection of IL-2;
Group 6: Reference group received reference compound dexamethasone and injection of IL-2.
Inhibition of lymphocyte recruitment was calculated as follows:
Where Ly 1=Number of lymphocytes in group 1 (E3/μl), Ly 2=Number of lymphocytes in group 2 (E3/μl), Ly X=Number of lymphocytes in group X (3-5) (E3/μl).

[3] = Table 1, compounds of Formula (I)
[4] = Table 2, compounds of Formula (VI)

Sequence of 92 kDa gelatinase (MMP-9) (P14780 107-707 limits assumed): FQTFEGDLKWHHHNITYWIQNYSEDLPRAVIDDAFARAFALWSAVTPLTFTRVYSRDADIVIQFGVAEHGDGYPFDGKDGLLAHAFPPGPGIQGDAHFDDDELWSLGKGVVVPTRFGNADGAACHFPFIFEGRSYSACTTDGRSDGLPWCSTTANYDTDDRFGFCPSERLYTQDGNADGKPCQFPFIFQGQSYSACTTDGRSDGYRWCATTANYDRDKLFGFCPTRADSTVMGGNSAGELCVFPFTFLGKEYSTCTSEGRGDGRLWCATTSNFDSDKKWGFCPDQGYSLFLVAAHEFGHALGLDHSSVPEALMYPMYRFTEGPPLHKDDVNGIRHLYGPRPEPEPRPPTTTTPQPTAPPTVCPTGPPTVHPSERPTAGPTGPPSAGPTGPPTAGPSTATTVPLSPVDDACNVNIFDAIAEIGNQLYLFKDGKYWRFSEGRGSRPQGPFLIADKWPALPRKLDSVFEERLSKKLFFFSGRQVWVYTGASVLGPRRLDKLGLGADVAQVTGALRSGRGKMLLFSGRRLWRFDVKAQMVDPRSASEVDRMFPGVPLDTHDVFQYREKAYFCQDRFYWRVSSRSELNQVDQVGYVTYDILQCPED
Sequence of metalloelastase (MMP-12) (P39900 106-470): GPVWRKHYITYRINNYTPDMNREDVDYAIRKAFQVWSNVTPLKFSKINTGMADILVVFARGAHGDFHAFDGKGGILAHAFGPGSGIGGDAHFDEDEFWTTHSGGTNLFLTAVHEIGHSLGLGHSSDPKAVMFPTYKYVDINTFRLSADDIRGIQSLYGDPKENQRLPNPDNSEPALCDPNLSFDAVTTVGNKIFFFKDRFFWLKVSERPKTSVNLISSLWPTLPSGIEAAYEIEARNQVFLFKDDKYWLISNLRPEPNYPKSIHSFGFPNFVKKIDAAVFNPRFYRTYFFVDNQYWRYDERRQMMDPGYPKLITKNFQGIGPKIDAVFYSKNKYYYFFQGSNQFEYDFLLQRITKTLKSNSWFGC

| Compound | IC50 (metalloelastase (MMP-12); [3]) [nM] | IC50 [1, 3] [nM] | IC50 (collagenase (MMP-1); [3]) [nM] | IC50 (gelatinase A (MMP-2); [3]) [nM] | % inhibition of IL-2-induced peritoneal recruitment of lymphocytes [2] [%] | IC50 (metalloelastase (MMP-12); [4]) [nM] | IC50 [1, 4] [nM] | IC50 (collagenase (MMP-1); [4]) [nM] | IC50 (gelatinase A (MMP-2); [4]) [nM] |
| --- | --- | --- | --- | --- | --- | --- | --- | --- | --- |
| CCOc1ccc(CCCC(C(=O)N2CCN(c3ccccc3F)C[C@H]2C)[C@H](O)C(=O)NO)cc1 (mixture of isomers) [Example 9, (2S,3S)-6-(4-ethoxyphenyl)-3-{[(2R)-4-(2-fluorophenyl)-2-methylpiperazin-1-yl]carbonyl}-N,2-dihydroxyhexanamide] | 33 | 233 | > 5000 | 136 |  |  |  |  |  |
| CC(C)C[C@H](C(=O)N1CCN(c2ccccn2)CC1)[C@H](O)C(=O)NO [Example 1, (2S,3S)-N,2-dihydroxy-5-methyl-3-{[4-(2-pyridinyl)-1-piperazinyl]carbonyl}hexanamide] | 4 | 5 | 418 | 3 |  |  |  |  |  |
| CC(C)C[C@H](C(=O)N1CCN(c2nc(-c3ccccc3)ns2)CC1)[C@H](O)C(=O)NO [Example 2, (2S,3S)-N,2-dihydroxy-5-methyl-3-{[4-(3-phenyl-1,2,4-thiadiazol-5-yl)-1-piperazinyl]carbonyl}hexanamide] | 103 | 7 | 876 | 17 |  |  |  |  |  |
| CC(C)C[C@H](C(=O)N1CCN(c2cc(C(F)(F)F)ccn2)C[C@H]1C)[C@H](O)C(=O)NO [Example 3, (2S,3S)-N,2-dihydroxy-5-methyl-3-({(2R)-2-methyl-4-[4-(trifluoromethyl)pyridin-2-yl]piperazin-1-yl}carbonyl)hexanamide] | 31 | 285 | > 5000 | 42 |  |  |  |  |  |
| CCOc1ccc(CCC[C@H](C(=O)N2CCN(c3ccccn3)C[C@@H]2C)[C@H](O)C(=O)NO)cc1 [Example 7, (2S,3S)-6-(4-ethoxyphenyl)-N,2-dihydroxy-3-{[(2S)-2-methyl-4-(2-pyridinyl)piperazinyl]carbonyl}hexanamide] |  |  |  |  | 46 |  |  |  |  |
| COc1ccc(N2CCN(C(=O)[C@@H](CC(C)C)[C@@H](O)C(=O)NO)CC2)cc1 [Example 14, (2R,3S)-N,2-dihydroxy-3-{[4-(4-methoxyphenyl)piperazin-1-yl]carbonyl}-5-methylhexanamide] | 4 | 585 | > 5000 | 89 |  |  |  |  |  |
| CCOc1ccc(CCC[C@@H](C(=O)N2CCC(Oc3ccccn3)CC2)[C@H](O)C(=O)NO)cc1 [Example 22] |  |  |  |  |  | 17 | 45 | > 5000 | 47 |
| CCOc1ccc(CCC[C@@H](C(=O)N2CCC(Nc3ccc(O)cc3)CC2)[C@H](O)C(=O)NO)cc1 [Example 46, (2S,3R)-6-(4-ethoxyphenyl)-N,2-dihydroxy-3-({4-[(4-hydroxyphenyl)amino]piperidin-1-yl}carbonyl)hexanamide] |  |  |  |  |  | 34 | 133 | > 5000 | 179 |
| CC(C)C[C@H](C(=O)N1CCN(c2noc(-c3ccccc3)n2)CC1)[C@@H](O)C(=O)NO [Example 56, (2R,3S)-N,2-dihydroxy-5-methyl-3-{[4-(5-phenyl-1,2,4-oxadiazol-3-yl)piperazin-1-yl]-carbonyl}hexanamide] | 6 | 41 | > 5000 | 4.8 |  |  |  |  |  |
| O=C(NO)[C@H](O)[C@H](CCOCc1ccccc1)C(=O)N1CCN(c2ccc(-c3ccccc3)cc2)CC1 [Example 58, 3-[(4-biphenyl-4-ylpiperazin-1-yl)carbonyl]-3,4-dideoxy-1-(hydroxyamino)-5-O-(phenylmethyl)-L-threo-pentose] | 7 | 194 | > 5000 | 38 |  |  |  |  |  |
| C[C@@H]1CN(c2ccc(OC(F)(F)F)cc2)CCN1C(=O)[C@@H](CC1CCCC1)[C@H](O)C(=O)NO [Example 91, (2S,3S)-3-(cyclopentylmethyl)-N,2-dihydroxy-4-{(2R)-2-methyl-4-[4-(trifluoromethoxy)phenyl]piperazin-1-yl}-4-oxobutanamide] | < 1 | 49 | 1150 | 3 |  |  |  |  |  |
